According to patent publication US11179391B2, “Compound with kinase inhibitory activity and preparation method and use thereof” (priority 2017, dated 2021):

Key:
Assay type in all cases: biochemical
CDK4/CycD3 = CDK4/CycD3 (Homo sapiens, UniProt P11802); test: Determination of CDK activity (Caliper mobility shift, FAM-P8 peptide): CDK4; settings: CDK4/CycD3; read-out: CDK4 enzymatic inhibitory activity (IC50)
Protocol: (§1) In vitro, CDK (CDK4, CDK6, CDK1, CDK2, CDK7, and CDK9) kinase activity was tested by the following method.
(§2) CDK and raw materials used here: CDK4/CycD3 (Carna, Cat. No 04-105, Lot. No 10CBS-0429 C, GST-CDK4(1-303end)/GST-CycD3(1-292end)); CDK6/cycD3 (Carna, Cat. No 04-107, Lot. No 09CBS-0622K, GST-CDK6(1-326(end))); CDK1/CyclinB (Millipore, Cat. 14-450k, Lot. No 25729U, His-CDK1+GST-cyclinB); CDK2/CycA2 (Carna, Cat. No 04-103, Lot. No 06CBS-3024, GST-CDK2 (1-298(end))); CDK7/CyclinH/MAT1 (Millipore, Cat. No 14-476M, Lot. No WAB0365-A, His-CDK7+GST-MAT1+cyclinH); CDK9/cyclinTl (Millipore, Cat. No 14-685K, Lot. No. 2476163-A, His-CDK9+cyclinTl); Peptide FAM-P8 (GL Biochem, Cat. No. 112396, Lot. No. P100804-XZ112396); ATP (Sigma, Cat. No. A7699-1G, CAS No. 987-65-5); DMSO (Sigma, Cat. No. D2650, Lot. No. 474382); EDTA (Sigma, Cat. No. E5134, CAS No. 60-00-4); 96-well plate (Corning, Cat. No. 3365, Lot. No. 22008026); 384-well plate (Corning, Cat. No. 3573, Lot. No. 12608008); Staurosporine (Sigma, Cat. No. S4400-1MG, Lot. No. 046K4080).
(§3) 1. Prepared 1× Kinase Buffer and Stop Buffer for the Test
2) 1× Kinase Base Buffer (CDK4).
(§4) 1) Diluted the compound to 50 times of the maximum concentration with 100% DMSO. For example, if the desired maximum inhibitory concentration is 10 μM, then a DMSO solution of 500 μM concentration is required.
(§5) 2) Transferred the compound to a 96-well plate and serially diluted the compound from a 100% DMSO solution at a ratio of 30 μm to 60 μm for a total of 10 concentrations gradients. 3) Transferred 100 μm of 100% DMSO to two empty wells as a no compound control and a no enzyme control.
(§6) 4) Prepared intermediate plate and transferred the compound of 10 μm concentration from the original plate to the intermediate plate, and then 90 μm of 1× kinase buffer was added and mixed by shaking for 10 min.
(§7) 4) Preparing intermediate plate and transferred the compound of […] concentration from the original plate to the intermediate plate, and then 90 μm of 1× kinase buffer was added and mixed by shaking for 10 min.
(§8) 1) Transferred 5 μm of each compound from the 96-well intermediate plate to a 384-well plate. For example, A1 of the 96-well plate was transferred to A1 and A2 of the 384-well plate. A2 of the 96-well plate was transferred to A3 and A4 of the 384-well plate, and so on.
(§9) 1) Prepared a 2.5× enzyme solution: added kinase into 1× kinase base buffer.
(§10) 2) Prepared a 2.5× peptide solution: added FAM-labeled peptide and ATP into the 1× kinase base buffer.
(§11) 3) Transferred the 2.5× enzyme solution to the assay plate: Assay plate already contained 5 μm of 10% DMSO and transferred 10 μm of 2.5× enzyme solution to each well.
(§12) 4) Incubated at room temperature for 10 min.
(§13) 5) Transferred the 2.5× peptide solution to the assay plate: added 10 μm of 2.5× peptide solution to each well of the 384-well assay plate.
(§14) 6) Kinase reaction and termination: incubated at 28° C. for a specified period and added 25 μm of stop buffer to stop the reaction.
(§15) 5. Caliper Reading: Collect Data on Caliper.
(§16) 1) Copied conversion data from Caliper program and Converted conversion values to inhibition values: Inhibition rate (%)=(1−OD value of the compound-OD value of the control well)/(OD value of the control empty-OD value of the control well)*100%.
(§17) 2) Fitted the data in XLFit excel add-in version 4.3.1 to give the corresponding IC50 values.

CDK1/CyclinB = CDK1/CyclinB (Homo sapiens, UniProt P06493); test: Determination of CDK activity (Caliper mobility shift, FAM-P8 peptide): CDK1; settings: CDK1/CyclinB; read-out: CDK1 enzymatic inhibitory activity (IC50)
Protocol: as §1, §3
(§18) 1) 1× Kinase Base Buffer (CDK1, 2, and 6).
as §4, §5
(§19) 1) Transferred 5 μm of each compound from the 96-well intermediate plate to a 384-well plate. […] A2 of the 96-well plate was transferred to A3 and A4 of the 384-well plate, and so on.
as §9, §10, §11, §12, §13, §14, §15, §16, §17

CDK2/CycA2 = CDK2/CycA2 (Homo sapiens, UniProt P24941); test: Determination of CDK activity (Caliper mobility shift, FAM-P8 peptide): CDK2; settings: CDK2/CycA2; read-out: CDK2 enzymatic inhibitory activity (IC50)
Protocol: as §1, §3, §18, §4, §5, §19, §9, §10, §11, §12, §13, §14, §15, §16, §17

CDK6/cycD3 = CDK6/cycD3 (Homo sapiens, UniProt Q00534); test: Determination of CDK activity (Caliper mobility shift, FAM-P8 peptide): CDK6; settings: CDK6/cycD3; read-out: CDK6 enzymatic inhibitory activity (IC50)
Protocol: as §1, §2, §3, §18, §4, §5, §6, §7, §8, §9, §10, §11, §12, §13, §14, §15, §16, §17

CDK7/CyclinH/MAT1 = CDK7/CyclinH/MAT1 (Homo sapiens, UniProt P50613); test: Determination of CDK activity (Caliper mobility shift, FAM-P8 peptide): CDK7; settings: CDK7/CyclinH/MAT1; read-out: CDK7 enzymatic inhibitory activity (IC50)
Protocol: as §1, §2, §3
(§20) 3) 1× Kinase Base Buffer (CDK7 and 9).
as §4, §5, §6, §7, §8, §9, §10, §11, §12, §13, §14, §15, §16, §17

CDK9/cyclinTl = CDK9/cyclinTl (Homo sapiens, UniProt P50750); test: Determination of CDK activity (Caliper mobility shift, FAM-P8 peptide): CDK9; settings: CDK9/cyclinTl; read-out: CDK9 enzymatic inhibitory activity (IC50)
Protocol: as §1, §3, §20, §4, §5, §19, §9, §10, §11, §12, §13, §14, §15, §16, §17

CDK7/CyclinH/MAT1, sequence (P50613 whole entry): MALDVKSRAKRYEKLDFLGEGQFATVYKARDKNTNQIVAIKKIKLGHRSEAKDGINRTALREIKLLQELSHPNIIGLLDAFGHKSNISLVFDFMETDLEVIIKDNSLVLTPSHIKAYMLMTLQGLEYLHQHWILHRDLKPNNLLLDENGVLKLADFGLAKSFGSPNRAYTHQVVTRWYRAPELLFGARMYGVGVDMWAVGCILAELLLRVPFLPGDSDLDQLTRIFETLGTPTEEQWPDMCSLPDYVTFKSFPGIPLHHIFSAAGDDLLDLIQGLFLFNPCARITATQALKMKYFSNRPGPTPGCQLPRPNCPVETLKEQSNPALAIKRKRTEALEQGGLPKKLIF
CDK7/CyclinH/MAT1, sequence (P51946 whole entry partner): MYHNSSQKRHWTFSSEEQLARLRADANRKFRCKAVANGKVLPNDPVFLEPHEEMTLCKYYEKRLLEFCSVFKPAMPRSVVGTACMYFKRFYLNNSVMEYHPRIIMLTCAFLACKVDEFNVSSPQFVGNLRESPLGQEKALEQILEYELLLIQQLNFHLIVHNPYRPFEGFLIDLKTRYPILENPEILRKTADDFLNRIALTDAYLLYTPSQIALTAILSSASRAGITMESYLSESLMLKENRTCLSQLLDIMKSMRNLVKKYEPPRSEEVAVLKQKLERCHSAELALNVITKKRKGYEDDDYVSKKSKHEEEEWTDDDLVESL
CDK7/CyclinH/MAT1, sequence (P51948 whole entry partner): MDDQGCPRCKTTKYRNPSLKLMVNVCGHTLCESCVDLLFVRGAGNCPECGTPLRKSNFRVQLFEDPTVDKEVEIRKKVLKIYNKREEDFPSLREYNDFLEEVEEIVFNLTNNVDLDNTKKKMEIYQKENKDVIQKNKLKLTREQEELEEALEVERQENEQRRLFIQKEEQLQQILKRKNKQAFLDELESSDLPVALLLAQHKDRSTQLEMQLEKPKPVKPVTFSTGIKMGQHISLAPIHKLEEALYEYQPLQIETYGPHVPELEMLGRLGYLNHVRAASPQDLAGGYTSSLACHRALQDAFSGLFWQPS
CDK1/CyclinB, sequence (P06493 whole entry): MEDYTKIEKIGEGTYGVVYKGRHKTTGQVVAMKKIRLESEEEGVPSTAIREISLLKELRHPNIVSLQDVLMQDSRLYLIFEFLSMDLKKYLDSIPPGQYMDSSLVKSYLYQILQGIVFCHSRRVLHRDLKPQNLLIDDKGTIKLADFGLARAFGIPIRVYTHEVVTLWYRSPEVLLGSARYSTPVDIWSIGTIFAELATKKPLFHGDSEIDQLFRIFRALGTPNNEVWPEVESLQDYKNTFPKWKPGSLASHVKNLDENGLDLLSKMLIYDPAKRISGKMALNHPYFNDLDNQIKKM
CDK1/CyclinB, sequence (P14635 whole entry partner): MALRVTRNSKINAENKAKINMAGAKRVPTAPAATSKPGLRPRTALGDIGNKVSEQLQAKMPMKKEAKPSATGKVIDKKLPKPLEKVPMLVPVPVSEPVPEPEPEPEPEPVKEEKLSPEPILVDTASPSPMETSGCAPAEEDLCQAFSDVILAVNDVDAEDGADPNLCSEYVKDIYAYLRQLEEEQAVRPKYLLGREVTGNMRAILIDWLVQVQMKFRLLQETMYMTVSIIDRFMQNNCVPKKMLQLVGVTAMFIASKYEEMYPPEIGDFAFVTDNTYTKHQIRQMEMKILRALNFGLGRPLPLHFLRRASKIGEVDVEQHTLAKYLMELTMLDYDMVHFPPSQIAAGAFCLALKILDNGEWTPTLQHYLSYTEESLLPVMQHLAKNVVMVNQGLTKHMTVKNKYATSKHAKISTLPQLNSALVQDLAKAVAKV
CDK9/cyclinTl, sequence (P50750 whole entry): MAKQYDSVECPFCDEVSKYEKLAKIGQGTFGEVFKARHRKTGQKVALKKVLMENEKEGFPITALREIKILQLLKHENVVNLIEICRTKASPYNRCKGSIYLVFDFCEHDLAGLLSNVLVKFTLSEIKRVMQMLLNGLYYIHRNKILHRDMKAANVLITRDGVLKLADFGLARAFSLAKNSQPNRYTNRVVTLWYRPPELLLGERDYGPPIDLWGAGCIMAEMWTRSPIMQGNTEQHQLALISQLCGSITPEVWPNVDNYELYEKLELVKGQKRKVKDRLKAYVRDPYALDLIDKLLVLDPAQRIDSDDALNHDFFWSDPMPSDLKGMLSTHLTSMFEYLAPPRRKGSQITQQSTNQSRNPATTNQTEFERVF
CDK9/cyclinTl, sequence (O60563 whole entry partner): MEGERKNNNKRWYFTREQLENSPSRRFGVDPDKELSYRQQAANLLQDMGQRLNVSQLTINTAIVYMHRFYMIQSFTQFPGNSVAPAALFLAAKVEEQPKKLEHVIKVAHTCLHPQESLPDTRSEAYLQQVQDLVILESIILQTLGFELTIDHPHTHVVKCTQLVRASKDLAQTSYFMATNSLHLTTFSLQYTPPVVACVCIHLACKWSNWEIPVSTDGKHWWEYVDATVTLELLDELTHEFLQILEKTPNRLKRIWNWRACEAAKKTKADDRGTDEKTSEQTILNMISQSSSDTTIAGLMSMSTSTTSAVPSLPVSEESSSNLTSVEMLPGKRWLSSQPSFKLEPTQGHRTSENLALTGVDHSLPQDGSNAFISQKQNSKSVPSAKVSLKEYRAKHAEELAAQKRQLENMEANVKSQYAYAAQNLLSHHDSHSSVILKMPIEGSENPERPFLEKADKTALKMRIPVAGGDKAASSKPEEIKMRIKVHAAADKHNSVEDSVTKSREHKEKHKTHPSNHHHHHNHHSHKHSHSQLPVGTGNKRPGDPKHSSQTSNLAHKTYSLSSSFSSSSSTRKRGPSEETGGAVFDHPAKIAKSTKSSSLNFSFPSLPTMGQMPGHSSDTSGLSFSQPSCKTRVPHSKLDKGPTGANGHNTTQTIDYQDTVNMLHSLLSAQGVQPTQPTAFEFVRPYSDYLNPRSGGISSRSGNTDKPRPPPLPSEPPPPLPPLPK
CDK6/cycD3, sequence (Q00534 whole entry): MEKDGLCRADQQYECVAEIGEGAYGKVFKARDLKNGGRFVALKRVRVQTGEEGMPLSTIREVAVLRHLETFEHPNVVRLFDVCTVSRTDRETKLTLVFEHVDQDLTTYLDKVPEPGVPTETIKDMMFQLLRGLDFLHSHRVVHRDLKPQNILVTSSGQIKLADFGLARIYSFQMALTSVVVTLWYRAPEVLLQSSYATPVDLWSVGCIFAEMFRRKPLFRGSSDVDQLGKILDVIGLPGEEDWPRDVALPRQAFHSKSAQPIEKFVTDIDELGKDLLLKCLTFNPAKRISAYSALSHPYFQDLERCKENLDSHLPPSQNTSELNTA
CDK6/cycD3, sequence (P30281 whole entry partner): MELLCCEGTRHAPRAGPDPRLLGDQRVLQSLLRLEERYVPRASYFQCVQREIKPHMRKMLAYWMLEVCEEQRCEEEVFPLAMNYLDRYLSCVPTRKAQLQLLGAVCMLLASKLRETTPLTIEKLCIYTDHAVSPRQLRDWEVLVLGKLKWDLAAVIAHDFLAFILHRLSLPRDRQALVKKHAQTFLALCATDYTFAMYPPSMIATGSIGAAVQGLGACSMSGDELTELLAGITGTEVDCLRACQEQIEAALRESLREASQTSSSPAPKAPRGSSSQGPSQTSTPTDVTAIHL
CDK4/CycD3, sequence (P11802 whole entry): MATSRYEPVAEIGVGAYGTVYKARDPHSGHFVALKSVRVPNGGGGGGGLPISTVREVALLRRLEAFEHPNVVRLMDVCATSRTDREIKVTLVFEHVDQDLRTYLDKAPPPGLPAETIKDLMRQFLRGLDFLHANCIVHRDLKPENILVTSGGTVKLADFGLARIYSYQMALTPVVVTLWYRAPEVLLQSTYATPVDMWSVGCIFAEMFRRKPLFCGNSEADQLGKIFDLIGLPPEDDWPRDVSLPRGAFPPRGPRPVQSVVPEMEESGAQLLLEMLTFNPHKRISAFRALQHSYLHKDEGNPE
CDK4/CycD3, sequence (P30281 whole entry partner): as the sequence (P30281 whole entry partner) above

| IC50 (CDK4/CycD3) [nM] | IC50 (CDK1/CyclinB) [nM] | IC50 (CDK2/CycA2) [nM] | IC50 (CDK6/cycD3) [nM] | IC50 (CDK7/CyclinH/MAT1) [nM] | IC50 (CDK9/cyclinTl) [nM] | Compound |
| --- | --- | --- | --- | --- | --- | --- |
| < 100 | 10000 to 100000 | 1000 to 10000 | 500 to 1000 | 1000 to 10000 | 1000 to 10000 | CC[C@@H](c1ccc(Nc2ncc(F)c(-c3cc(F)c4nc(C)n(C(C)C)c4c3)n2)nc1)N1CCNCC1 [Example 4] |
| < 100 | < 100 | < 100 | 100 to 500 | 100 to 500 | 100 to 500 | Cc1nc2c(F)cc(-c3nc(Nc4ccc([C@@H](O)C5CCN(C)CC5)cn4)ncc3F)cc2n1C(C)C [Example 50] |
| 100 to 500 | 500 to 1000 | 500 to 1000 | 100 to 500 | 1000 to 10000 | 500 to 1000 | C=C(c1ccc(Nc2ncc(F)c(-c3cc(F)c4nc(C)n(C(C)C)c4c3)n2)nc1)N1CCN(CC)CC1 [Example 36] |
| < 100 | 10000 to 100000 | 1000 to 10000 | 1000 to 10000 | 1000 to 10000 | 1000 to 10000 | CCC(c1ccc(Nc2ncc(F)c(-c3cc(F)c4nc(C)n(C(C)C)c4c3)n2)nc1)N1CCN(CC)CC1 (racemic) [Example 1, N-(5-(1-(4-ethylpiperazin-1-yl)propyl)pyridin-2-yl)-5-fluoro-4-(4-fluoro-1-isopropyl-2-methyl-1H-benzo[d]imidazol-6-yl)pyrimidin-2-amine] |

More lines, now with the values behind:

| Compound | IC50 (CDK4/CycD3) [nM] | IC50 (CDK1/CyclinB) [nM] | IC50 (CDK2/CycA2) [nM] | IC50 (CDK6/cycD3) [nM] | IC50 (CDK7/CyclinH/MAT1) [nM] | IC50 (CDK9/cyclinTl) [nM] |
| --- | --- | --- | --- | --- | --- | --- |
| Cc1nc2c(F)cc(-c3nc(Nc4ccc([C@H](C)C5CCN(C6CC6)CC5)cn4)ncc3F)cc2n1C(C)C [Example 75] | < 100 | 100 to 500 | < 100 | < 100 | 1000 to 10000 | 100 to 500 |
| CC(=C1CCNCC1)c1ccc(Nc2ncc(F)c(-c3cc(F)c4nc(C)n(C(C)C)c4c3)n2)nc1 [Example 61] | < 100 | 500 to 1000 | 100 to 500 | 500 to 1000 | 1000 to 10000 | 100 to 500 |
| CCC(c1ccc(Nc2ncc(F)c(-c3cc(F)c4nc(C)n(C(C)C)c4c3)n2)nc1)N1CCN(CC)CC1 (single isomer, unassigned) [Example 3, (R or S)—N-(5-(1-(4-ethylpiperazin-1-yl)propyl)pyridin-2-yl)-5-fluoro-4-(4-fluoro-1-isopropyl-2-methyl-1H-benzo[d]imidazol-6-yl) pyrimidin-2-amine] | < 100 | 10000 to 100000 | 10000 to 100000 | 100 to 500 | 1000 to 10000 | 10000 to 100000 |
| COCCN1CCC(=Cc2ccc(Nc3ncc(F)c(-c4cc(F)c5nc(C)n(C(C)C)c5c4)n3)nc2)CC1 [Example 68] | < 100 | 100 to 500 | < 100 | < 100 | 1000 to 10000 | 100 to 500 |
| Cc1nc2c(F)cc(-c3nc(Nc4ccc(C(C)C5CCNCC5)cn4)ncc3F)cc2n1C(C)C (single isomer, unassigned) [Example 19, (R or S)-5-fluoro-4-(4-fluoro-1-isopropyl-2-methyl-1H-benzo[d]imidazol-6-yl)-N-(5-(1-(piperidin-4-yl)ethyl)pyridin-2-yl) pyrimidin-2-amine] | 100 to 500 | 100 to 500 | 100 to 500 | < 100 | 1000 to 10000 | 100 to 500 |
| Cc1nc2c(F)cc(-c3nc(Nc4ccc([C@H](C)C5CCN(CCO)CC5)cn4)ncc3F)cc2n1C(C)C [Example 77] | < 100 | 100 to 500 | < 100 | < 100 | 1000 to 10000 | 100 to 500 |
| C=C(c1ccc(Nc2ncc(F)c(-c3cc(F)c4nc(C)n(C(C)C)c4c3)n2)nc1)C1CCNCC1 [Example 34] | 100 to 500 | 500 to 1000 | 100 to 500 | 100 to 500 | 1000 to 10000 | 100 to 500 |
| CCN1CCC([C@@H](OC)c2ccc(Nc3ncc(F)c(-c4cc(F)c5nc(C)n(C(C)C)c5c4)n3)nc2)CC1 [Example 45] | < 100 | 100 to 500 | < 100 | 100 to 500 | 1000 to 10000 | 100 to 500 |
